This is an account of results in patent publication US12286401B2, “Small molecules that sensitize HIV-1 infected cells to antibody dependent cellular cytotoxicity” (THE TRUSTEES OF THE UNIVERSITY OF PENNSYLVANIA, priority 2018, dated 2025).

The test system of series [1] is CH58TF infected primary CD4+ T-cells. In words: HIV+ patient sera/plasma recognition of CH58TF infected primary CD4+ T-cells (flow cytometry cell-surface staining). The note with it: for fold induction at 50 µM: Human immunodeficiency virus 1, T-cell, read-out: Fold Over DMSO (patient sera, n = 3); for recognition of infected cells by plasma from 15 HIV-1-infected individuals: 50 μM, 1:1000 diluted HIV+ plasma, result in words. Format: cell-based, HIV-1. In outline: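 Primary CD4+ T cells from PBMC infected with HIV-1 CH58TF for 48 h, then surface-stained with 1:1000 HIV+ plasma or 5 μg/ml 17b plus 50 μM MCG analogs or DMSO; Alexa Fluor 647 anti-human IgG detection by flow cytometry, infected cells gated p24+. Values are fold change over DMSO.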
A general note: Flow cytometry measures light scatter and fluorescence of single cells or particles in a stream.

Series [2] has the same test system. In words: Recognition of HIV-1 infected cells by 17b (flow cytometry cell-surface staining). Format: cell-based. As to conditions: for fold induction at 50 µM: Human immunodeficiency virus 1, T-cell, read-out: Fold Over DMSO (17b, n = 1); for recognition of infected cells by the anti-CoRBS 17b antibody: 50 μM, 5 μg/ml 17b, result in words. The gist of the method:
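Primary CD4+ T cells infected 48 h with HIV-1 CH58TF, stained with 5 μg/ml 17b plus MCG analogs (50 μM), (+)-BNM-III-170 or DMSO vehicle. Detection by Alexa Fluor 647 anti-human IgG secondary and flow cytometry. Infected cells gated as p24+ living cells.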

The test system of series [3] is primary CD4+ T cells infected with CH58 TF. In words: FACS-based ADCC assay with patient sera/plasma. Format: cell-based, HIV-1. The note with it: for fold induction at 50 µM: Human immunodeficiency virus 1, CD4+ T, read-out: Fold over DMSO (% ADCC with ps, n = 3); for ADCC responses against infected cells: 50 μM, 1/1,000 dilution of plasma from 15 HIV-1-infected individuals, result in words. As for the experimental part: Measurement of antibody or serum-mediated ADCC is performed with a FACS-based assay as described in Prevost, “Influence of the Envelope gp120 Phe 43 Cavity on HIV-1 Sensitivity to Antibody-Dependent Cell-Mediated Cytotoxicity Responses,” 2017, J. Virol 91; Richard, “CD4 mimetics sensitize HIV-1-infected cells to ADCC,” 2015, Proc. Natl. Acad. Sci. USA, 112:E2687-2694; Richard, “Small CD4 Mimetics Prevent HIV-1 Uninfected Bystander CD4+ T Cell Killing Mediated by Antibody-dependent Cell-mediated Cytotoxicity,” 2016, EBioMedicine 3:122-134; Veillette, “The HIV-1 gp120 CD4-Bound Conformation Is Preferentially Targeted by Antibody-Dependent Cellular Cytotoxicity-Mediating Antibodies in Sera from HIV-1-Infected Individuals,” 2015, J. Virol., 89:545-551; Veillette, “Interaction with cellular CD4 exposes HIV-1 envelope epitopes targeted by antibody-dependent cell-mediated cytotoxicity,” 2014, J. Virol., 88:2633-2644; Richard, “Uninfected Bystander Cells Impact the Measurement of HIV-Specific Antibody-Dependent Cellular Cytotoxicity Responses,” 2018, MBio. 9(2): e00358-18; Richard, “BST-2 Expression Modulates Small CD4-Mimetic Sensitization of HIV-1-Infected Cells to Antibody-Dependent Cellular Cytotoxicity,” 2017, J. Virol. 91(11):e00219-17. This assay specifically measures ADCC activity against productively infected cells and is not affected by the confounding effect of uninfected bystander cells. See, Richard, “Uninfected Bystander Cells Impact the Measurement of HIV-Specific Antibody-Dependent Cellular Cytotoxicity Responses,” 2018, MBio., 9(2): e00358-18.
Briefly, primary CD4+ T cells isolated from healthy HIV-1-negative individuals or CEM-NKr cells are infected with HIV viruses. Forty-eight hours post-infection, cells are incubated with autologous PBMC (effector:target cell ratio of 10:1) in the presence of 1:1000 HIV+ sera dilution or anti-Env Abs (5 μg/mL) alone or in combination with increasing concentration of MCG analogs. Infected cells are identified by intracellular staining for HIV-1 p24 or GFP expression (for GFP expressing infectious molecular clones) and the percentage of cytotoxicity is calculated the following formula as described.
For cells infected with HIV-1 primary isolates, infected cells are identified by intracellular staining for HIV-1 p24. In that context, the percentage of cytotoxicity is calculated with the following formula by gating infected lived target cells: […]
The ADCC susceptibility of primary CD4+ T cells infected with CH58 TF mediated by HIV+ plasma+/−MCG analogs also was evaluated using a FACS-based assay as previously reported. See, Ding, 2016, J Virol., 90:2127-2134; and Richard, 2018, MBio 9.
Briefly, Primary CD4 T cells isolated from PBMC were infected with HIV-1CH58TF for 48 hours. For cell surface staining, 5 μg/ml 17b (FIG. 15A) or 1:1000 diluted HIV+ plasma (n=15) (FIG. 15B) were used in the presence of the different MCG analogs (50 μM), (+)-BNM-III-170 or with an equivalent volume of vehicle (DMSO). An Alexa Fluor 647-conjugated anti-human IgG secondary Ab was then used for fluorescent labeling. For ADCC (FIG. 15C), infected cells were used as target cells in a FACS-based ADCC assay that measures the killing of infected (p24+ cells). See, Madani, 2016, J. Virol., 90:5031-5046. The assay determines susceptibility to ADCC mediated by a 1/1,000 dilution of plasma from 15 HIV-1-infected individuals in the presence of the different MCG analogs (50 μM), (+)-BNM-III-170 (50 μM) or with an equivalent volume of vehicle (DMSO). Correlation between cell-surface staining with HIV+ plasma and ADCC was calculated using the Spearman rank correlation (FIG. 15D).

The nature of another series: Solubility in PBS. The note with it: Yes/NO. The series is classed as physicochemical.

For the compound `CS(=O)(=O)N1CCC[C@H](C(=O)Nc2ccc(Br)cc2)C1` [(S)-MCG-III-027-A02], the fold induction at 50 µM was 2.08 in series [1], 1.65 in series [2] and 0.291 in series [3]. Further, in the series “Solubility in PBS”, the “Solubility (in PBS)” value is “Yes”.

Regarding `CS(=O)(=O)N1CCC[C@H](C(=O)Nc2ccc(F)cc2)C1` [(S)-MCG-III-027-A03], the fold induction at 50 µM in series [1] amounted to 1.52; in series [2], 1.12; in series [3], 0.969. For the same compound, in the series “Solubility in PBS”, the “Solubility (in PBS)” value is reported as “Yes”.

Turning to `CS(=O)(=O)N1CCC[C@H](C(=O)Nc2cccc(Cl)c2)C1` [(S)-MCG-III-027-B01], the fold induction at 50 µM in series [1] turned out to be 1.37; in series [2], 1.04; in series [3] it was 0.87. Further, the “Solubility (in PBS)” value in “Solubility in PBS” is reported as “Yes”.

In the case of `CS(=O)(=O)N1CCC[C@H](C(=O)Nc2cccc(Br)c2)C1` [(S)-MCG-III-027-B02], the fold induction at 50 µM in series [1] was found to be 1.62; in series [2], 1.06; in series [3], 0.74. The “Solubility (in PBS)” value in “Solubility in PBS” is listed as “Yes”.

Consider `CS(=O)(=O)N1CCC[C@H](C(=O)Nc2cccc(F)c2)C1` [(S)-MCG-III-027-B03], for which the fold induction at 50 µM in series [1] turned out to be 1.44; in series [2], 1.05; in series [3] it was 1.17. The “Solubility (in PBS)” value in the series “Solubility in PBS” is on record as “Yes”.

As for `CS(=O)(=O)N1CCC[C@H](C(=O)Nc2cccc(C(F)(F)F)c2)C1` [(S)-MCG-III-027-B04], the fold induction at 50 µM in series [1] came to 1.47; in series [2], 1.01; in series [3] it was 0.129. Moreover, in “Solubility in PBS”, the “Solubility (in PBS)” value is “Yes”.

With `COc1cccc(NC(=O)[C@H]2CCCN(S(C)(=O)=O)C2)c1` [(S)-MCG-III-027-B05], the fold induction at 50 µM was 1.71 in series [1], 1.03 in series [2] and 0.361 in series [3]. In addition, in the series “Solubility in PBS”, the “Solubility (in PBS)” value is “Yes”.

`CS(=O)(=O)N1CCC[C@H](C(=O)Nc2ccccc2Cl)C1` [(S)-MCG-III-027-C01]: the fold induction at 50 µM in series [1] came to 1.06; in series [2], 1.14; in series [3], 0.722. Also, the “Solubility (in PBS)” value in the series “Solubility in PBS” was “Yes”.

Consider `CS(=O)(=O)N1CCC[C@H](C(=O)Nc2ccc(F)cc2F)C1` [(S)-MCG-III-027-D04], for which the figures for the fold induction at 50 µM in series [1], in series [2] and in series [3] were 1.24, 1.17 and 1.37, respectively. The “Solubility (in PBS)” value in “Solubility in PBS” was “Yes”.

`CS(=O)(=O)N1CCC[C@H](C(=O)Nc2ccc(Cl)c(F)c2)C1` [(S)-MCG-III-027-D05]: in series [1], the “recognition of infected cells by plasma from 15 HIV-1-infected individuals” value (“recognition of infected cells by plasma” below) is recorded as “enhanced the recognition of infected cells” and the fold induction at 50 µM came to 2.83. Also, in series [2], the “recognition of infected cells by the anti-CoRBS 17b antibody” value was “enhanced the recognition of infected cells” and the fold induction at 50 µM amounted to 2.22. In addition, in series [3], the “ADCC responses against infected cells” value is “enhanced ADCC responses” and the fold induction at 50 µM was found to be 1.01. The “Solubility (in PBS)” value in the series “Solubility in PBS” is listed as “Yes”.

With `CCS(=O)(=O)N1CCC[C@H](C(=O)Nc2ccc(Cl)c(F)c2)C1` [(S)-MCG-III-085-C01], the fold induction at 50 µM came to 3.28 in series [1], 5.7 in series [2] and 0.487 in series [3]. For the same compound, the “Solubility (in PBS)” value in “Solubility in PBS” is “Yes”.

`Cn1cnc(S(=O)(=O)N2CCC[C@H](C(=O)Nc3ccc(Cl)c(F)c3)C2)c1` [(S)-MCG-III-116-A02]: the fold induction at 50 µM in series [1] was 1.97; in series [3], 1.86.

Consider `COC(=O)N1CCC[C@H](C(=O)Nc2ccc(Cl)c(F)c2)C1` [(S)-MCG-III-188-A01], for which, in series [1], the “recognition of infected cells by plasma” value was “enhanced the recognition of infected cells” and the fold induction at 50 µM worked out at 2.69. In series [2], the “recognition of infected cells by the anti-CoRBS 17b antibody” value is “enhanced the recognition of infected cells” and the fold induction at 50 µM turned out to be 7.11. Also, in series [3], the “ADCC responses against infected cells” value is listed as “enhanced ADCC responses” and the fold induction at 50 µM was 2.27. Further, the “Solubility (in PBS)” value in “Solubility in PBS” was “Yes”.

Regarding `CCOC(=O)N1CCC[C@H](C(=O)Nc2ccc(Cl)c(F)c2)C1` [(S)-MCG-III-188-A02], in series [1], the “recognition of infected cells by plasma” value is “enhanced the recognition of infected cells” and the fold induction at 50 µM worked out at 3.83. Also, in series [2], the “recognition of infected cells by the anti-CoRBS 17b antibody” value is reported as “enhanced the recognition of infected cells” and the fold induction at 50 µM was 6.35. In series [3], the “ADCC responses against infected cells” value was “enhanced ADCC responses” and the fold induction at 50 µM is 0.867. Besides, in “Solubility in PBS”, the “Solubility (in PBS)” value is “Yes”.

`CCCNC(=O)N1CCC[C@H](C(=O)Nc2ccc(Cl)c(F)c2)C1` [(S)-MCG-IV-031-A05]: the “recognition of infected cells by plasma” value in series [1] is given as “enhanced the recognition of infected cells”. Moreover, the “recognition of infected cells by the anti-CoRBS 17b antibody” value in series [2] is reported as “enhanced the recognition of infected cells”. Moreover, in series [3], the “ADCC responses against infected cells” value is on record as “enhanced ADCC responses”.

Take `NCCNC(=O)N1CCC[C@H](C(=O)Nc2ccc(Cl)c(F)c2)C1` [(S)-MCG-IV-210]: the “recognition of infected cells by plasma” value in series [1] was “enhanced the recognition of infected cells”. Further, in series [2], the “recognition of infected cells by the anti-CoRBS 17b antibody” value is reported as “enhanced the recognition of infected cells”. Moreover, in series [3], the “ADCC responses against infected cells” value is reported as “enhanced ADCC responses”.

As to `O=C(Nc1ccc(Cl)c(F)c1)C1CCCN(S(=O)(=O)c2ccccc2)C1` (stereo not drawn) [MCG-III-157-B03], the fold induction at 50 µM in series [1] amounted to 3.73; in series [3], 1.94.

In the case of `Cn1cnc(S(=O)(=O)N2CCCC(C(=O)Nc3ccc(Cl)c(F)c3)C2)c1` (stereo not drawn) [MCG-III-157-B04], the fold induction at 50 µM in series [1] is 2.4; in series [3], 1.73. Besides, the “Solubility (in PBS)” value in “Solubility in PBS” is listed as “Yes”.

On to `O=C(Nc1ccc(Cl)c(F)c1)C1CCCOC1` (stereo not drawn) [MCG-III-207], for which the fold induction at 50 µM came to 1.92 in series [1], 3.69 in series [2] and 1.59 in series [3]. The “Solubility (in PBS)” value in “Solubility in PBS” is given as “Yes”.
